Assay: The drug is tested on Subdoligranulum variabile strain: DSM15176 for biotransformation. The drug concentrations were measured before and after a 12-h incubation by liquid-chromatography-coupled mass spectrometry (LC–MS)
Conditions: 2 µM

Structure (SMILES) | Bacterial Biotransformation
O=C(CCCN1CCC(O)(c2ccc(Cl)cc2)CC1)c1ccc(F)cc1 [HALOPERIDOL] | Compound NOT metabolized
Cc1ccnc2c1NC(=O)c1cccnc1N2C1CC1 [NEVIRAPINE] | Compound NOT metabolized

Assay: The drug is tested on Edwardsiella tarda strain: ATCC23685 for biotransformation. The drug concentrations were measured before and after a 12-h incubation by liquid-chromatography-coupled mass spectrometry (LC–MS)
Conditions: 2 µM

Structure (SMILES) | Bacterial Biotransformation
OCCN(CCO)c1nc(N2CCCCC2)c2nc(N(CCO)CCO)nc(N3CCCCC3)c2n1 [DIPYRIDAMOLE] | Compound NOT metabolized
O=C(CCCN1CCC(O)(c2ccc(Cl)cc2)CC1)c1ccc(F)cc1 [HALOPERIDOL] | Compound NOT metabolized
Cc1ccnc2c1NC(=O)c1cccnc1N2C1CC1 [NEVIRAPINE] | Compound NOT metabolized

Assay: The drug is tested on Parabacteroides merdae strain: ATCC43184 for biotransformation. The drug concentrations were measured before and after a 12-h incubation by liquid-chromatography-coupled mass spectrometry (LC–MS)
Conditions: 2 µM

Structure (SMILES) | Bacterial Biotransformation
OCCN(CCO)c1nc(N2CCCCC2)c2nc(N(CCO)CCO)nc(N3CCCCC3)c2n1 [DIPYRIDAMOLE] | Compound metabolized
O=C(CCCN1CCC(O)(c2ccc(Cl)cc2)CC1)c1ccc(F)cc1 [HALOPERIDOL] | Compound NOT metabolized
Cc1ccnc2c1NC(=O)c1cccnc1N2C1CC1 [NEVIRAPINE] | Compound NOT metabolized

Assay: The drug is tested on Coprococcus comes strain: ATCC27758 for biotransformation. The drug concentrations were measured before and after a 12-h incubation by liquid-chromatography-coupled mass spectrometry (LC–MS)
Assay type: ADME
Set-up: dose 2 uM, timepoint 0 vs 12 hours
Conditions: 2 µM

Structure (SMILES) | Bacterial Biotransformation
OCCN(CCO)c1nc(N2CCCCC2)c2nc(N(CCO)CCO)nc(N3CCCCC3)c2n1 [DIPYRIDAMOLE] | Compound NOT metabolized
O=C(CCCN1CCC(O)(c2ccc(Cl)cc2)CC1)c1ccc(F)cc1 [HALOPERIDOL] | Compound NOT metabolized
Cc1ccnc2c1NC(=O)c1cccnc1N2C1CC1 [NEVIRAPINE] | Compound NOT metabolized

Assay: The drug is tested on Bacteroides ovatus strain: ATCC8483 for biotransformation. The drug concentrations were measured before and after a 12-h incubation by liquid-chromatography-coupled mass spectrometry (LC–MS)
Conditions: 2 µM

Structure (SMILES) | Bacterial Biotransformation
OCCN(CCO)c1nc(N2CCCCC2)c2nc(N(CCO)CCO)nc(N3CCCCC3)c2n1 [DIPYRIDAMOLE] | Compound NOT metabolized
O=C(CCCN1CCC(O)(c2ccc(Cl)cc2)CC1)c1ccc(F)cc1 [HALOPERIDOL] | Compound NOT metabolized
Cc1ccnc2c1NC(=O)c1cccnc1N2C1CC1 [NEVIRAPINE] | Compound NOT metabolized

Assay: The drug is tested on Clostridium symbiosum strain: ATCC14940 for biotransformation. The drug concentrations were measured before and after a 12-h incubation by liquid-chromatography-coupled mass spectrometry (LC–MS)
Conditions: 2 µM

Structure (SMILES) | Bacterial Biotransformation
OCCN(CCO)c1nc(N2CCCCC2)c2nc(N(CCO)CCO)nc(N3CCCCC3)c2n1 [DIPYRIDAMOLE] | Compound NOT metabolized
O=C(CCCN1CCC(O)(c2ccc(Cl)cc2)CC1)c1ccc(F)cc1 [HALOPERIDOL] | Compound NOT metabolized
Cc1ccnc2c1NC(=O)c1cccnc1N2C1CC1 [NEVIRAPINE] | Compound NOT metabolized

Assay: The drug is tested on Bacteroides coprophilus strain: DSM18228 for biotransformation. The drug concentrations were measured before and after a 12-h incubation by liquid-chromatography-coupled mass spectrometry (LC–MS)
Conditions: 2 µM

Structure (SMILES) | Bacterial Biotransformation
OCCN(CCO)c1nc(N2CCCCC2)c2nc(N(CCO)CCO)nc(N3CCCCC3)c2n1 [DIPYRIDAMOLE] | Compound NOT metabolized
Cc1ccnc2c1NC(=O)c1cccnc1N2C1CC1 [NEVIRAPINE] | Compound NOT metabolized

Assay: The drug is tested on Bacteroides pectinophilus strain: ATCC43243 for biotransformation. The drug concentrations were measured before and after a 12-h incubation by liquid-chromatography-coupled mass spectrometry (LC–MS)
Conditions: 2 µM

Structure (SMILES) | Bacterial Biotransformation
O=C(CCCN1CCC(O)(c2ccc(Cl)cc2)CC1)c1ccc(F)cc1 [HALOPERIDOL] | Compound NOT metabolized
Cc1ccnc2c1NC(=O)c1cccnc1N2C1CC1 [NEVIRAPINE] | Compound NOT metabolized

Assay: The drug is tested on Enterobacter cancerogenus strain: ATCC35316 for biotransformation. The drug concentrations were measured before and after a 12-h incubation by liquid-chromatography-coupled mass spectrometry (LC–MS)
Conditions: 2 µM

Structure (SMILES) | Bacterial Biotransformation
O=C(CCCN1CCC(O)(c2ccc(Cl)cc2)CC1)c1ccc(F)cc1 [HALOPERIDOL] | Compound NOT metabolized
Cc1ccnc2c1NC(=O)c1cccnc1N2C1CC1 [NEVIRAPINE] | Compound NOT metabolized

Assay: The drug is tested on Ruminococcus torques strain: ATCC27756 for biotransformation. The drug concentrations were measured before and after a 12-h incubation by liquid-chromatography-coupled mass spectrometry (LC–MS)
Assay type: ADME
Set-up: dose 2 uM, timepoint 0 vs 12 hours
Conditions: 2 µM

Structure (SMILES) | Bacterial Biotransformation
OCCN(CCO)c1nc(N2CCCCC2)c2nc(N(CCO)CCO)nc(N3CCCCC3)c2n1 [DIPYRIDAMOLE] | Compound NOT metabolized
O=C(CCCN1CCC(O)(c2ccc(Cl)cc2)CC1)c1ccc(F)cc1 [HALOPERIDOL] | Compound NOT metabolized
Cc1ccnc2c1NC(=O)c1cccnc1N2C1CC1 [NEVIRAPINE] | Compound NOT metabolized

Conditions: enterocloster bolteae, 12 h, 2 µM
Description: The drug is tested on Clostridium bolteae strain: ATCCBAA-613 for biotransformation. The drug concentrations were measured before and after a 12-h incubation by liquid-chromatography-coupled mass spectrometry (LC–MS)

Structure (SMILES) | Bacterial Biotransformation
O=C(CCCN1CCC(O)(c2ccc(Cl)cc2)CC1)c1ccc(F)cc1 [HALOPERIDOL] | Compound NOT metabolized
Cc1ccnc2c1NC(=O)c1cccnc1N2C1CC1 [NEVIRAPINE] | Compound NOT metabolized

Assay: The drug is tested on Dorea formicigenerans strain: ATCC27755 for biotransformation. The drug concentrations were measured before and after a 12-h incubation by liquid-chromatography-coupled mass spectrometry (LC–MS)
Conditions: 2 µM

Structure (SMILES) | Bacterial Biotransformation
OCCN(CCO)c1nc(N2CCCCC2)c2nc(N(CCO)CCO)nc(N3CCCCC3)c2n1 [DIPYRIDAMOLE] | Compound NOT metabolized
O=C(CCCN1CCC(O)(c2ccc(Cl)cc2)CC1)c1ccc(F)cc1 [HALOPERIDOL] | Compound NOT metabolized
Cc1ccnc2c1NC(=O)c1cccnc1N2C1CC1 [NEVIRAPINE] | Compound NOT metabolized

Assay: The drug is tested on Bacteroides fragilis strain: HMW610 for biotransformation. The drug concentrations were measured before and after a 12-h incubation by liquid-chromatography-coupled mass spectrometry (LC–MS)
Conditions: 2 µM

Structure (SMILES) | Bacterial Biotransformation
O=C(CCCN1CCC(O)(c2ccc(Cl)cc2)CC1)c1ccc(F)cc1 [HALOPERIDOL] | Compound NOT metabolized
Cc1ccnc2c1NC(=O)c1cccnc1N2C1CC1 [NEVIRAPINE] | Compound NOT metabolized

Conditions: bacteroides stercoris, 12 h, 2 µM
Description: The drug is tested on Bacteroides stercoris strain: ATCC43183 for biotransformation. The drug concentrations were measured before and after a 12-h incubation by liquid-chromatography-coupled mass spectrometry (LC–MS)

Structure (SMILES) | Bacterial Biotransformation
OCCN(CCO)c1nc(N2CCCCC2)c2nc(N(CCO)CCO)nc(N3CCCCC3)c2n1 [DIPYRIDAMOLE] | Compound NOT metabolized
O=C(CCCN1CCC(O)(c2ccc(Cl)cc2)CC1)c1ccc(F)cc1 [HALOPERIDOL] | Compound NOT metabolized
Cc1ccnc2c1NC(=O)c1cccnc1N2C1CC1 [NEVIRAPINE] | Compound NOT metabolized

Assay: The drug is tested on Eubacterium rectale strain: ATCC33656 for biotransformation. The drug concentrations were measured before and after a 12-h incubation by liquid-chromatography-coupled mass spectrometry (LC–MS)
Conditions: agathobacter rectalis, 2 µM

Structure (SMILES) | Bacterial Biotransformation
OCCN(CCO)c1nc(N2CCCCC2)c2nc(N(CCO)CCO)nc(N3CCCCC3)c2n1 [DIPYRIDAMOLE] | Compound NOT metabolized
O=C(CCCN1CCC(O)(c2ccc(Cl)cc2)CC1)c1ccc(F)cc1 [HALOPERIDOL] | Compound NOT metabolized

Assay: The drug is tested on Clostridium asparagiforme strain: DSM15981 for biotransformation. The drug concentrations were measured before and after a 12-h incubation by liquid-chromatography-coupled mass spectrometry (LC–MS)
Assay type: ADME
Set-up: dose 2 uM, timepoint 0 vs 12 hours
Conditions: enterocloster asparagiformis, 2 µM

Structure (SMILES) | Bacterial Biotransformation
OCCN(CCO)c1nc(N2CCCCC2)c2nc(N(CCO)CCO)nc(N3CCCCC3)c2n1 [DIPYRIDAMOLE] | Compound NOT metabolized

Assay: The drug is tested on Bacteroides fragilis strain: ATCC43859 for biotransformation. The drug concentrations were measured before and after a 12-h incubation by liquid-chromatography-coupled mass spectrometry (LC–MS)
Conditions: 2 µM

Structure (SMILES) | Bacterial Biotransformation
O=C(CCCN1CCC(O)(c2ccc(Cl)cc2)CC1)c1ccc(F)cc1 [HALOPERIDOL] | Compound NOT metabolized
Cc1ccnc2c1NC(=O)c1cccnc1N2C1CC1 [NEVIRAPINE] | Compound NOT metabolized

Assay: The drug is tested on Alistipes indistinctus strain: DSM22520 for biotransformation. The drug concentrations were measured before and after a 12-h incubation by liquid-chromatography-coupled mass spectrometry (LC–MS)
Conditions: 2 µM

Structure (SMILES) | Bacterial Biotransformation
OCCN(CCO)c1nc(N2CCCCC2)c2nc(N(CCO)CCO)nc(N3CCCCC3)c2n1 [DIPYRIDAMOLE] | Compound NOT metabolized
O=C(CCCN1CCC(O)(c2ccc(Cl)cc2)CC1)c1ccc(F)cc1 [HALOPERIDOL] | Compound NOT metabolized
Cc1ccnc2c1NC(=O)c1cccnc1N2C1CC1 [NEVIRAPINE] | Compound NOT metabolized

Assay: The drug is tested on Blautia luti strain: DSM14534 for biotransformation. The drug concentrations were measured before and after a 12-h incubation by liquid-chromatography-coupled mass spectrometry (LC–MS)
Assay type: ADME
Set-up: dose 2 uM, timepoint 0 vs 12 hours
Conditions: 2 µM

Structure (SMILES) | Bacterial Biotransformation
OCCN(CCO)c1nc(N2CCCCC2)c2nc(N(CCO)CCO)nc(N3CCCCC3)c2n1 [DIPYRIDAMOLE] | Compound NOT metabolized
O=C(CCCN1CCC(O)(c2ccc(Cl)cc2)CC1)c1ccc(F)cc1 [HALOPERIDOL] | Compound NOT metabolized
Cc1ccnc2c1NC(=O)c1cccnc1N2C1CC1 [NEVIRAPINE] | Compound NOT metabolized

Assay: The drug is tested on Collinsella intestinalis strain: DSM13280 for biotransformation. The drug concentrations were measured before and after a 12-h incubation by liquid-chromatography-coupled mass spectrometry (LC–MS)
Conditions: 2 µM

Structure (SMILES) | Bacterial Biotransformation
OCCN(CCO)c1nc(N2CCCCC2)c2nc(N(CCO)CCO)nc(N3CCCCC3)c2n1 [DIPYRIDAMOLE] | Compound NOT metabolized
O=C(CCCN1CCC(O)(c2ccc(Cl)cc2)CC1)c1ccc(F)cc1 [HALOPERIDOL] | Compound NOT metabolized
Cc1ccnc2c1NC(=O)c1cccnc1N2C1CC1 [NEVIRAPINE] | Compound NOT metabolized

Reference: ChEMBL document CHEMBL5303573, “Mapping human microbiome drug metabolism by gut bacteria and their genes” (Nature, 2019)
